The values below come from patent US11274085B2, “3-aryl-bicyclic [4,5,0] hydroxamic acids as HDAC inhibitors” (Valo Health, Inc., priority 2015, dated 2022).

The test deals with T1, human recombinant HDAC6 (Homo sapiens, UniProt Q9UBN7).
T1 sequence (Q9UBN7 1-1215): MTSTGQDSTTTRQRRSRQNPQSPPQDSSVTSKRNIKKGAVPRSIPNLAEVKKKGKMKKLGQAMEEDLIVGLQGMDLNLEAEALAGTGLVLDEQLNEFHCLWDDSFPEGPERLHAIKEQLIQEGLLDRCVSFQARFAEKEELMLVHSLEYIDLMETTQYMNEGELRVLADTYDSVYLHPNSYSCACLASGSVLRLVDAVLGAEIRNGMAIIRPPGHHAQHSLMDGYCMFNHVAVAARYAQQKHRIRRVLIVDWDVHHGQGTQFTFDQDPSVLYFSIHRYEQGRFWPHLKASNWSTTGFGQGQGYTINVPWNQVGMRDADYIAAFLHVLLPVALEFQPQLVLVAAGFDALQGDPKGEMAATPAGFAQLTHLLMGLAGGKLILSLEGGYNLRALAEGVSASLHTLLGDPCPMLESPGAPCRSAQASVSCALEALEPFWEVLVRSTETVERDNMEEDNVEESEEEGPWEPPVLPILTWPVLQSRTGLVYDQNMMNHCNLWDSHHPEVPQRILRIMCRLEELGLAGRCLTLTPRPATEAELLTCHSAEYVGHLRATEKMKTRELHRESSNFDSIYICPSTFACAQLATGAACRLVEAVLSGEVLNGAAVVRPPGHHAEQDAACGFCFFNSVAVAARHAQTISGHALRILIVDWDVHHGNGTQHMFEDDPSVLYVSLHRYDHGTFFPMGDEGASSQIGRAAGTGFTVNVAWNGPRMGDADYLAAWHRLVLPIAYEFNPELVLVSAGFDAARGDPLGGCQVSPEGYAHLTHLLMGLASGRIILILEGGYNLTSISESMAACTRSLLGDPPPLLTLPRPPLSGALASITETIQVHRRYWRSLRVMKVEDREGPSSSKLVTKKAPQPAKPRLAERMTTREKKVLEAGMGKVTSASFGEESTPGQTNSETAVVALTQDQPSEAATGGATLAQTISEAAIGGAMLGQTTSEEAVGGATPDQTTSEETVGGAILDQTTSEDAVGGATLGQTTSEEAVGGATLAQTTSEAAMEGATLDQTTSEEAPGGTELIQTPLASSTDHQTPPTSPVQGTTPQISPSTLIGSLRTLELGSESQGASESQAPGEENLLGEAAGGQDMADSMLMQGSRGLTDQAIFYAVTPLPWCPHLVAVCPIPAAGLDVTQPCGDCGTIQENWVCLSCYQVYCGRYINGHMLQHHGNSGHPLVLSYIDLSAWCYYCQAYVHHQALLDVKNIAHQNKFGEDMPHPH
Kind of test: In vitro histone deacetylase assay: enzymatic HDAC6 electrophoretic mobility shift assay. The test is classed as biochemical. The following applies: full length human recombinant HDAC6 1 nM, 2 μM peptide substrate RHKK(Ac)-NH2, 25° C.; read-out: Inhibitory Concentration (IC50) against HDAC6, Activity Range. The procedure:
The enzymatic HDAC6 assay was performed using electrophoretic mobility shift assay. […] The enzymatic reactions were assembled in 384 well plates and in a total volume of 25 μL in a reaction buffer comprising: 100 mM HEPES, pH 7.5, 25 mM KCl, 0.1% bovine serum albumin, 0.01% Triton X-100, 1% DMSO (from compounds), 2 μM of the fluorescently labeled peptide substrate, and enzyme. The enzyme was added at a final concentration of 1 nM and the peptide substrate RHKK(Ac)—NH2 was used. The compounds were tested at 12 concentrations spaced by 3× dilution intervals. Negative control samples (0%-inhibition in the absence of inhibitor) and positive control samples (100%-inhibition) were assembled in replicates of four in each assay plate. The reactions were incubated at 25° C. and quenched by the addition of 45 μL of termination buffer (100 mM HEPES, pH 7.5, 0.01% Triton X-100, 0.05% SDS).
The terminated assay plates were analyzed on LabChip® 3000 microfluidic electrophoresis instrument (Perkin Elmer/Caliper Life Sciences). The fluorescence intensity of the electrophoretically separated de-acetylated product and substrate peptide was measured. Activity in each sample was determined as the product to sum ratio (PSR):P/(S+P), where P is the peak height of the product peptide and S is the peak height of the substrate peptide. Percent inhibition (Pinh) is determined using the following equation: Pinh=(PSR0%−PSRinh)/(PSR0%−PSR100%)*100, where PSRinh is the product sum ratio in the presence of inhibitor, PSR0% is the average product sum ration in the absence of inhibitor, and PSR100% is the average product sum ratio in 100%-inhibition control samples. The IC50 values of inhibitors were determined by fitting the %-inhibition curves with 4 parameter dose-response model using XLfit 4 software.
As set forth in Table 4, below, IC50 values are defined as follows: IC50≤0.1 μM (+++); IC50>0.1 μM and ≤0.5 μM (++); IC50>0.5 μM (+).
A general note: Mobility shift assays separate free from complexed probe on a gel.
Take `O=C(NO)c1ccc2c(c1)OC[C@@H](c1cccnc1)N(C(=O)N1CCOCC1)C2` (single isomer, unassigned): the IC50 is over 500 nM.
`O=C(NO)c1ccc2c(c1)OC[C@H](c1cccnc1)N(C(=O)N1CCOCC1)C2` (single isomer, unassigned): the IC50 was at most 100 nM.
On to `O=C(NO)c1ccc2c(c1)OC[C@@H](c1ccccc1)N(c1ccccc1)C2` [(R)-N-hydroxy-3,4-diphenyl-2,3,4,5-tetrahydrobenzo[f][1,4]oxazepine-8-carboxamide], for which the IC50 was in the range of 100 to 500 nM.
Take `COc1ccc(CN2Cc3ccc(C(=O)NO)cc3OC[C@H]2c2ccccc2)cc1` [(R)-N-hydroxy-4-(4-methoxybenzyl)-3-phenyl-2,3,4,5-tetrahydrobenzo[f][1,4]oxazepine-8-carboxamide]: the IC50 is at most 100 nM.
For the compound `CN1Cc2ccc(C(=O)NO)cc2OC[C@H]1c1ccccc1` [(R)-N-hydroxy-4-methyl-3-phenyl-2,3,4,5-tetrahydrobenzo[f][1,4]oxazepine-8-carboxamide], the IC50 is at most 100 nM.
For `O=C(NO)c1ccc2c(c1)OC[C@H](c1cccc(Cl)c1)N(C(=O)N1CCOCC1)C2` [(S)-3-(3-chlorophenyl)-N-hydroxy-4-(morpholine-4-carbonyl)-2,3,4,5-tetrahydrobenzo[f][1,4]oxazepine-8-carboxamide], the IC50 is at most 100 nM.
Regarding `O=C(NO)c1ccc2c(c1)OC[C@H](c1ccc(Cl)cc1)N(C(=O)N1CCOCC1)C2` [(S)-3-(4-chlorophenyl)-N-hydroxy-4-(morpholine-4-carbonyl)-2,3,4,5-tetrahydrobenzo[f][1,4]oxazepine-8-carboxamide], the IC50 is at most 100 nM.
As to `O=C(NO)c1ccc2c(c1)OC[C@H](c1ccc(F)cc1)N(C(=O)N1CCOCC1)C2` [(S)-3-(4-fluorophenyl)-N-hydroxy-4-(morpholine-4-carbonyl)-2,3,4,5-tetrahydrobenzo[f][1,4]oxazepine-8-carboxamide], the IC50 was at most 100 nM.
On to `CC(=O)N1CCN(C(=O)N2Cc3ccc(C(=O)NO)cc3OC[C@@H]2c2ccccc2)CC1` [(S)-4-(4-acetylpiperazine-1-carbonyl)-N-hydroxy-3-phenyl-2,3,4,5-tetrahydrobenzo[f][1,4]oxazepine-8-carboxamide], for which the IC50 was at most 100 nM.
For `O=C(NO)c1ccc2c(c1)OC[C@H](c1ccccc1)N(S(=O)(=O)c1ccc(F)cc1)C2` [(S)-4-((4-fluorophenyl)sulfonyl)-N-hydroxy-3-phenyl-2,3,4,5-tetrahydrobenzo[f][1,4]oxazepine-8-carboxamide], the IC50 was in the range of 100 to 500 nM.
For `O=C(NO)c1ccc2c(c1)OC[C@H](c1ccccc1)N(C(=O)NC1CCCCC1)C2` [(S)-N4-cyclohexyl-N8-hydroxy-3-phenyl-2,3-dihydrobenzo[f][1,4]oxazepine-4,8(5H)-dicarboxamide], the IC50 was at most 100 nM.
With `O=C(NO)c1ccc2c(c1)OC[C@H](c1ccccc1)N(C(=O)Nc1cccnc1)C2` [(S)-N8-hydroxy-3-phenyl-N4-(pyridin-3-yl)-2,3-dihydrobenzo[f][1,4]oxazepine-4,8(5H)-dicarboxamide], the IC50 was at most 100 nM.
Consider `O=C(NO)c1ccc2c(c1)OC[C@H](c1ccccc1)N(C(=O)Nc1ccncc1)C2` [(S)-N8-hydroxy-3-phenyl-N4-(pyridin-4-yl)-2,3-dihydrobenzo[f][1,4]oxazepine-4,8(5H)-dicarboxamide], for which the IC50 was at most 100 nM.
With `O=C(NO)c1ccc2c(c1)OC[C@H](c1ccccc1)N(C(=O)NC1CCOCC1)C2` [(S)-N8-hydroxy-3-phenyl-N4-(tetrahydro-2H-pyran-4-yl)-2,3-dihydrobenzo[f][1,4]oxazepine-4,8(5H)-dicarboxamide] the figure was at most 100 nM; with `O=C(NO)c1ccc2c(c1)OC[C@H](c1ccccc1)N(C(=O)Nc1ccccc1)C2` [(S)-N8-hydroxy-N4,3-diphenyl-2,3-dihydrobenzo[f][1,4]oxazepine-4,8(5H)-dicarboxamide], at most 100 nM.
As for `CN(C)C(=O)N1Cc2ccc(C(=O)NO)cc2OC[C@@H]1c1ccccc1` [(S)-N8-hydroxy-N4,N4-dimethyl-3-phenyl-2,3-dihydrobenzo[f][1,4]oxazepine-4,8(5H)-dicarboxamide], the IC50 is at most 100 nM.
As to `O=C(NO)c1ccc2c(c1)OC[C@H](c1ccccc1)N(c1ccccc1)C2` [(S)-N-hydroxy-3,4-diphenyl-2,3,4,5-tetrahydrobenzo[f][1,4]oxazepine-8-carboxamide], the IC50 is at most 100 nM.
Take `O=C(NO)c1ccc2c(c1)OC[C@H](c1ccccc1)N(C(=O)N1CCCCC1)C2` [(S)-N-hydroxy-3-phenyl-4-(piperidine-1-carbonyl)-2,3,4,5-tetrahydrobenzo[f][1,4]oxazepine-8-carboxamide]: the IC50 is at most 100 nM.
With `O=C(NO)c1ccc2c(c1)OC[C@H](c1ccccc1)N(C(=O)N1CCCC1)C2` [(S)-N-hydroxy-3-phenyl-4-(pyrrolidine-1-carbonyl)-2,3,4,5-tetrahydrobenzo[f][1,4]oxazepine-8-carboxamide], the IC50 was at most 100 nM.
Take `COc1ccc(CN2Cc3ccc(C(=O)NO)cc3OC[C@@H]2c2ccccc2)cc1` [(S)-N-hydroxy-4-(4-methoxybenzyl)-3-phenyl-2,3,4,5-tetrahydrobenzo[f][1,4]oxazepine-8-carboxamide]: the IC50 is at most 100 nM.
In the case of `COC1CCN(C(=O)N2Cc3ccc(C(=O)NO)cc3OC[C@@H]2c2ccccc2)CC1` [(S)-N-hydroxy-4-(4-methoxypiperidine-1-carbonyl)-3-phenyl-2,3,4,5-tetrahydrobenzo[f][1,4]oxazepine-8-carboxamide], the IC50 was at most 100 nM.
On to `CN1CCN(C(=O)N2Cc3ccc(C(=O)NO)cc3OC[C@@H]2c2ccccc2)CC1` [(S)-N-hydroxy-4-(4-methylpiperazine-1-carbonyl)-3-phenyl-2,3,4,5-tetrahydrobenzo[f][1,4]oxazepine-8-carboxamide], for which the IC50 was at most 100 nM.
For `O=C(NO)c1ccc2c(c1)OC[C@H](c1ccc(C(F)(F)F)cc1)N(C(=O)N1CCOCC1)C2` [(S)-N-hydroxy-4-(morpholine-4-carbonyl)-3-(4-(trifluoromethyl)phenyl)-2,3,4,5-tetrahydrobenzo[f][1,4]oxazepine-8-carboxamide], the IC50 is at most 100 nM.
Next, `Cc1ccc([C@H]2COc3cc(C(=O)NO)ccc3CN2C(=O)N2CCOCC2)cc1` [(S)-N-hydroxy-4-(morpholine-4-carbonyl)-3-(p-tolyl)-2,3,4,5-tetrahydrobenzo[f][1,4]oxazepine-8-carboxamide]: at most 100 nM; `O=C(NO)c1ccc2c(c1)OC[C@H](c1ccccc1)N(C(=O)N1CCOCC1)C2` [(S)-N-hydroxy-4-(morpholine-4-carbonyl)-3-phenyl-2,3,4,5-tetrahydrobenzo[f][1,4]oxazepine-8-carboxamide]: at most 100 nM; `CN1Cc2ccc(C(=O)NO)cc2OC[C@@H]1c1ccccc1` [(S)-N-hydroxy-4-methyl-3-phenyl-2,3,4,5-tetrahydrobenzo[f][1,4]oxazepine-8-carboxamide]: at most 100 nM.
